{"source": "patent US20160113931A1", "about": "“Method of treating and/or preventing neurodegenerative diseases” (University of Macau, priority 2014, published 2016)", "key": {"[1]": {"system": "oligodendroglial progenitor cells (OPCs)", "assay": "OPC proliferation (MTT assay)", "type": "cell-based, rat", "conditions": "Rattus norvegicus, 48 h, read-out: OPC viability compared with the control group", "protocol": "(§1) FIGS. 10A, 10B and 10C show the effects of BHDPC in oligodendroglial progenitor cells (OPCs) proliferation. OPCs were incubated with the drugs at indicated concentrations in proliferation medium for 2 days. (FIG. 10A) The cell viability was measured by MTT assay.\n(§2) The percentage of surviving cells was estimated by determining the activity of mitochondrial dehydrogenases with 3(4,5-dimethylthiazol-2-yl)-2,5-diphenyltetrazolium bromide (MTT) assay. After drug treatment, cells were incubated at 37° C. for 4 h in 0.5 mg/mL MTT solution. The medium was then removed, and 100 μL of DMSO was added to each well to dissolve the violet formazan crystals. The absorbance of the samples was measured at a wavelength of 570 nm with 655 nm as a reference wavelength. All values were normalized to the control groups.\n(§3) Purified OPC cultures were prepared as described. In brief, primary rat mixed glial cell cultures were isolated from whole brains of postnatal day (P) 2 rats, dissociated into single cells, and cultured into poly-D-lysine (PDL) coated T75 tissue culture flasks. Plating medium consisted of Dulbecco's modified Eagle's medium (DMEM, Invitrogen, Carlsbad, Calif.) supplemented with 10% fetal bovine serum (FBS; Invitrogen, Carlsbad, Calif.), […]. Tissue cultures were maintained at 37° C. in a humidified 5% CO2 incubator, and medium was exchanged every 3 days. Once confluent (after 10-15 days), microglia were separated by mechanical shaking of flasks on a rotary shaker for […] at 250 rpm and removed. After addition of fresh medium, the remaining cells were allowed to recover overnight before repeating the mechanical shaking for an additional 16 h at 200 rpm to isolate OPCs. To ensure purity of OPC cultures, the isolated cells were transferred to a tissue culture dish, from which the loosely attached OPCs were detached by gentle shaking after 60 min, leaving behind attached microglia and astrocytes. OPCs were plated onto PDL coated 96 well plates using an automated dispenser and allowed to adhere to the plates over the next 1-2 days.\n(§4) To test the effect of BHDPC on primary OPC culture, OPCs were treated with BHDPC for 48 h and the cell viability was determined using MTT assay. […] The proliferation activity of BHDPC was also confirmed by the EdU incorporative assay."}, "[2]": {"assay": "OPC proliferation (MTT assay)", "type": "cell-based, rat", "conditions": "rat, primary oligodendroglial progenitor cells (OPCs), 100 μM, read-out: OPC viability compared with the control group (cytotoxicity)", "protocol": "as §1, §2, §3, §4"}, "NIH mice": {"system": "NIH mice", "assay": "Acute toxicity assay in NIH mice", "type": "in vivo", "conditions": "maximum dose, observed 14 days", "protocol": "NIH mice, sex in half, for acute toxicity assay was supplied by Guangzhou Medicinal Experiment Animal Center and the animal qualification code was 44007200007090 and the certificate number was SCXK (Guangdong) 2013-0002. The animals were kept in the SPF-grade animal laboratory which was conformed to the SPF grade requirement of animal testing facility, where temperature was within the range of 22° C. (±2° C.) and the humidity was in the range of 30-70%. The diurnal lighting and darkness cycle was 12 hours. The air change per hour was in the range of 10-20 times. The approval no. of the SPF animal laboratory was SYXK (Guangdong) 2005-0062. The rat chow was the SPF-grade full pellet for mouse, which was bought from Guangdong Medicinal Laboratory Animal Center. The nutritional values and the sanitation condition were conformed to the SPF-grade requirement for animal testing. Antiseptic water were given ad libitum.\nNIH mice were randomly divided into 6 groups. Ten NIH mice, sex in half, were assigned to for each group. […]"}, "primary cortical neurons": {"system": "primary cortical neurons", "assay": "MPP+-induced neuronal death in primary cortical neurons (LDH release)", "type": "cell-based, rat", "conditions": "2 h pre-treatment, 200 μM MPP+ 24 h", "protocol": "Primary culture of cortical neurons was prepared from embryonic day 18±0.5 Sprague-Dawley rats. One day after seeding, primary cortical neurons were treated with 10 and 30 μM BHDPC for 14 days. Fourteen days following BHDPC treatment, primary cortical neurons cultured on glass coverslips (Thermo Scientific) were fixed with 4% paraformaldehyde for 15 min. Following fixation, neurons were permeabilized with 0.1% Triton X-100 in Tris-buffered saline for 7 min, and blocked with 4% bovine serum albumin and 2% goat serum for 1 h. α-tubulin and MAP2 were incubated at 1:400 dilution for 1 h at room temperature and overnight at 4° C. respectively. Following primary antibody incubation, neurons were incubated with Alexa Flour 488 or 568 secondary antibodies (anti-rabbit or anti-mouse) at 1:400 dilution for 1 h at room temperature. […] Fluorescence intensity was measured using Image J.\nCell cytotoxicity was also determined by measuring the activity of LDH released into the incubation medium when cellular membranes were damaged. […] After treatment, the released LDH activity in the medium was measured according to the instructions of the Cytotoxicity Detection Kit (Roche Applied Science, Mannheim, Germany). Absorbance at 490 nm was measured using SpectraMax M5. […]\nLDH release was measured at 24 hours after the MPP^+ challenge."}}}
{"molecule": "COc1cc(C2C(C(=O)OCc3ccccc3)=C(C)Nc3nnnn32)ccc1O", "note": "(centres unmarked) [BHDPC, benzyl 7-(4-hydroxy-3-methoxyphenyl)-5-methyl-4,7-dihydrotetrazolo[1,5-a]pyrimidine-6-carboxylate]", "values": [{"measurement": "viability at 1 µM", "setting": "[1]; 1 μM", "value": 100, "unit": "%"}, {"measurement": "viability at 3 µM", "setting": "[1]; 3 μM", "value": 106, "unit": "%"}, {"measurement": "viability at 10 µM", "setting": "[1]; 10 μM", "value": 127, "unit": "%"}, {"measurement": "viability at 30 µM", "setting": "[1]; 30 μM", "value": 152, "unit": "%"}, {"measurement": "viability at 48 h, 100 µM", "setting": "[2]", "value": 65, "unit": "%"}, {"measurement": "toxic effects", "setting": "NIH mice; 5 mg/kg, iv", "value": "no toxic effects were observed"}, {"measurement": "toxic effects", "setting": "NIH mice; 10 mg/kg, oral gavage", "value": "no toxic effects were observed"}, {"measurement": "MPP+-induced neuronal death (LDH release)", "setting": "primary cortical neurons", "value": "prevented MPP^+-induced neuronal death"}]}
